Patent US9340585B2, “Competence stimulating peptide” (INSTITUT NATIONAL DE LA RECHERCHE AGRONOMIQUE, priority 2009, dated 2016)
Where no end group is shown, it is not given here. The star is where a group is joined. Cam = NC(=O)C*

What was measured:
[1] = system: strain deleted for the papR gene; test: Transformation assay: peptide added to culture of papR-deleted strain in CDM; type: cell-based, S. thermophilus; details: for Competence: peptide stimulates competence, YES/NO
Description: (§1) S. thermophilus cells are grown overnight at 42° C. in CDM. The culture is then diluted in CDM at an OD600 0.05. Sixty minutes after dilution, the competence stimulating peptide (CSP), which is the mature peptide comprising SEQ ID No1 or fragments or derivatives of SEQ ID No1 that allow to induce competence in S. thermophilus, is added to the culture at a final concentration of 1 μM. Ten minutes later, 100 μl of the culture containing the CSP is mixed with 1 μg of DNA and incubated for 2 hours at 28° C. when mixed with a thermosensitive replicative plasmid DNA or 1 hour at 42° C. when mixed with chromosomal DNA or PCR fragments, before being serially diluted and spread on M17lac plates with the appropriate antibiotic.
The inventors tested the activity of fragments of SEQ ID No1 using a strain deleted for the papR gene using the protocol described in part 8. The inventors thus synthesized different fragments of SEQ ID No1 in order to test their biological activity. Fragments were synthesized as below:
(§2) To test the biological activity of those fragments, peptides were added to a culture of a strain deleted for the papR gene at a final concentration of 1 μM, 1 hour after the dilution of the culture at an OD600 of 0.05 in a chemical defined medium (CDM). Transformation assays were performed with 100 μl of cells with 1 μg of plasmid and or chromosomal DNA.

[2] = system: S. thermophilus strain CNRZ1066; test: Transformation assay: peptide added to culture of strain CNRZ1066; type: cell-based
Description: as §1, §2
(§3) S. thermophilus strain LMG18311 is naturally poorly competent and strain CNRZ1066 is naturally not competent. However, complementation of both strains with a plasmid that overexpresses the papR gene makes them competent. […]

[3] = system: S. thermophilus strain LMG18311; test: Transformation assay: peptide added to culture of strain LMG18311; type: cell-based
Description: as §1, §2, §3

[4] = Chromosomal transforming DNA, alkylation comparison
[5] = Chromosomal transforming DNA 1 μg, peptide 1 μM, fragment comparison

IAILPYFAGC*L (IAILPYFAGC(Cam)L; listed as Streptococcus thermophilus) [Alkylated SEQ ID N^o7]
numbers of transformants obtained with 100 μl of competent cells [1, 4]: 0
numbers of transformants obtained with 100 μl of competent cells ([1]; Plasmid transforming DNA, alkylation comparison): 2

LPYFAGCL (Fragment of SEQ ID N07) [SEQ ID N^o12]
numbers of transformants obtained with 100 μl of competent cells [1, 5]: 41

PYFAGCL (Fragment of SEQ ID N07) [SEQ ID N^o13]
numbers of transformants obtained with 100 μl of competent cells [1, 5]: 0
numbers of transformants obtained with 100 μl of competent cells ([1]; Plasmid transforming DNA 1 μg, peptide 1 μM, fragment comparison): 0

IAILPYFAGCL (listed as Streptococcus thermophilus) [SEQ ID N^o7]
competence after addition of the peptide to the culture ([2]; CNRZ1066, result in words): renders them competent
numbers of transformants obtained with 100 μl of competent cells ([2]; CNRZ1066, Chromosomal transforming DNA): 0
competence after addition of the peptide to the culture ([3]; LMG18311, result in words): renders them competent
numbers of transformants obtained with 100 μl of competent cells ([3]; LMG18311, Chromosomal transforming DNA): 477
numbers of transformants obtained with 100 μl of competent cells [1, 5]: 24
numbers of transformants obtained with 100 μl of competent cells [1, 4]: 35
Competence ([1]; listed as 7): YES
Competence ([1]; listed as SEQ ID No7): active competence peptide
